Patent US10087417B2, “Three-dimensional model of human cortex” (priority 2015, dated 2018)

Assays:
Type in all cases: cell-based, human
neocortical organoids [1] = conditions: 3 μM cocaine 1 h every other day, days 32-44; measured day 44
Experimental: Endogenous ROS were measured by incubating neocortical organoids at day 44 with 100 μM 2′,7′-dichlorofluorescein diacetate (DCFH-DA) (Sigma-Aldrich) for 30 min with or without cocaine. The organoids were washed and dissolved in 1% Triton X-100 in PBS. Fluorescence for each sample was measured at an excitation wavelength of 485 nm, and an emission wavelength of 530 nm using a fluorescence microplate reader (Techan Genios). Protein concentration for each sample was determined using the BCA assay (Pierce BCA® Protein Assay Kits; Thermo Scientific), according to manufacturer's instructions. The level of endogenous ROS for each sample was determined by dividing the fluorescence units by the concentration of protein in the lysate.
Taking into consideration that cocaine concentrations in the fetal rat neocortex drop rapidly to negligible levels 1 h after cocaine administration (Lee et al, PLoS Med. 5:e117, 2008), and to create a physiologically-meaningful drug treatment schedule in vitro, the neocortical organoids were exposed to a pharmacologically-relevant dose of cocaine, 3 μM (Kindberg et al, Dis. Model Mech. 7:1397-1405, 2014), for 1 h every other day, from days 32-44. […] In the present model, post-mitotic neurons migrated toward the periphery of the NE. […] The percentage of BrdU^+ cells that expressed TUJ1 was increased by cocaine as compared to control (FIG. 5F and FIG. 6B).

[2] = test system: PAX6+ NE cells of neocortical organoids; conditions: 3 μM cocaine 1 h every other day, days 32-44; day 45; H9 and H14
Experimental: (§1) FIGS. 5A-5I is a series of panels showing neurodevelopmental effects of cocaine mediated by CYP3A5. FIG. 5A is an image showing RT-PCR analysis of expression of CYP3A family genes at different stages of neocortical organoid differentiation. “Neocortical organoids” indicates day 44 of differentiation. FIG. 5B is a graph showing ROS formation in the neocortical organoids in presence or absence of cocaine. Neocortical organoids were treated with 3 μM cocaine for 1 h every other day from day 32 to day 44, and endogenous ROS was measured at day 44. n=6. FIG. 5C is a graph showing effects of CYP3A5 or CYP3A43 knockdown on cocaine-induced ROS generation in H9 (dashed line, in the absence of cocaine). n=6. FIG. 5D is a graph showing proliferation of PAX6^+ NE cells of neocortical organoids in the presence or absence of cocaine in H9. Proliferation was examined at day 45 with 1 h BrdU (10 μM) incorporation. n=5. FIG. 5E is a graph showing effects of CYP3A5 or CYP3A43 knockdown on cocaine-induced inhibition of proliferation of PAX6^+ NE cells in H9 (dashed line, in the absence of cocaine). n=7. FIG. 5F is graph showing neuronal differentiation in neocortical organoids in the presence or absence of cocaine in H9. Neuronal differentiation was analyzed 24 h after 1 h BrdU (10 μM) treatment from day 51 to day 52. […] FIG. 5G is a graph showing effects of CYP3A5 or CYP3A43 knockdown on cocaine-induced premature neuronal differentiation in H9 (dashed line, in the absence of cocaine). n=7, FIG. 5H is a graph showing neural tissue development in the presence or absence of cocaine in H9. TUJ1^+ areas in the neocortical organoids were analyzed at day 66. TUJ1^+ areas expressed as percentages of total organoid area on day 24 are shown. n=6. FIG. 5I is a graph showing effects of CYP3A5 or CYP3A43 knockdown on cocaine-induced inhibition of neural tissue development in H9 (dashed line, in the absence of cocaine). n=6. Data are shown as means±SEM. Unpaired two-tailed Student's t-test for H9 and H14 in FIG. 5B, and for FIGS. 5D, 5F, and 5H. […]

neocortical organoids [3] = conditions: 3 μM cocaine days 32-44, days 51-52
Experimental: as §1

neocortical organoids [4] = conditions: 3 μM cocaine days 32-44; day 66; H9 and H14
Experimental: Adherent cells in culture were fixed with 4% PFA for 10 min, followed by PBS wash. Neocortical organoids embedded in collagen gel were immersed in 4% PFA for 20 min and cryoprotected in 20% sucrose in PBS for 20 min. Cryostat sections (10 μm) were thaw-mounted onto gelatin-subbed slides. Cells and tissue sections were blocked with 0.2% Triton X-100 in PBS supplemented with 5% BSA and 10% goat serum. Cells were then incubated with primary antibodies in 0.2% Triton X-100 in PBS with 5% BSA and 5% goat serum: rabbit anti-BF1 (1:100; Abcam), rat anti-CD133 (1:100; Millipore), rat anti-CTIP2 (1:50; Abcam), rabbit anti-CUX1 (1:100; Santa Cruz Biotechnology), rabbit anti-EMX1 (1:50; Sigma), mouse anti-gamma-tubulin (1:500; Sigma), rat anti-HOXB4 (1:50; DSHB), mouse anti-Ki67 (1:100; BD Biosciences), rabbit anti-N-cadherin (1:100; Abcam), mouse anti-Nestin (1:50; R&D Systems), mouse anti-NKX2.1 (1:200; Chemicon), mouse anti-PAX6 (1:50; DSHB), rabbit anti-PAX6 (1:300; Covance), rabbit anti-PH3 (1:500; Cell Signaling Technology), mouse anti-Reelin (1:200; Millipore), rabbit anti-TBR1 (1:1000; Abcam), and mouse anti-TUJ1 (1:2,000; Promega). […] TUJ1+ neocortical areas were calculated by normalization of TUJ1+ areas in the neocortical organoids at day 66 (using only sections from the center of each organoid) to organoid size at day 24. […]

[5] = test system: neocortical neurons generated from hPSCs

COC(=O)[C@H]1[C@@H](OC(=O)c2ccccc2)C[C@@H]2CC[C@H]1N2C [cocaine]
ROS generation in neocortical organoids (neocortical organoids [1]): ROS accumulation was observed | proliferation of PAX6+ NE cells [2]: inhibited | migration of BrdU-labeled TUJ1 neurons outwards to the periphery of the NE area (neocortical organoids [3]; BrdU 1 h pulse, 24 h chase): increased | percentage of BrdU+ cells that expressed TUJ1, compared to control (neocortical organoids [3]; H9 and H14): increased | development of the TUJ1+ area (neocortical organoids [4]): significantly inhibited

NC1=N[C@H](O)[C@H]2[C@H]3O[C@]4(O)O[C@@H]([C@@H](O)[C@@]2(N1)[C@@H]4O)[C@]3(O)CO [tetrodotoxin]
action potentials recorded in current clamp mode [5]: blocked
